What was measured:
[1] = LNP size and polydispersity measured with a Zetasizer Nano; type: physicochemical; details: LNP: ionizable lipid/DSPC/cholesterol/DMG-PEG2000 about 50/10/38.5/1.5, eGFP mRNA, dialyzed against TBS; for size: in nm (unit assumed)
Method: (§1) Lipid based nanoparticles were produced by microfluidic mixing of an mRNA solution in sodium acetate buffer (100 mM, pH 4) and lipid solution in a 2:1 volume ratio at a speed of 16 mL/min using the NanoAssemblr Benchtop (Precision Nanosystems). LNPs were produced at a standard molar ratio ionizable lipid/DSPC (Avanti Polar Lipids)/cholesterol (Sigma)/DMG-PEG2000 (Avanti Polar Lipids) of about 50/10/38.5/1.5. eGFP mRNA was encapsulated in all LNPs as reporter mRNA, at a mRNA/ionizable lipid molar ratio of 1/10. LNPs were dialyzed against TBS (10000 times more TBS volume than LNP volume) using slide-a-lyzer dialysis cassettes (20K MWCO, 3 mL, ThermoFisher). Size, polydispersity and zeta potential were measured with a Zetasizer Nano (Malvern). mRNA encapsulation was measured by standard Ribogreen RNA assay (Invitrogen).

[2] = mRNA encapsulation by Ribogreen RNA assay; type: physicochemical; details: LNP: ionizable lipid/DSPC/cholesterol/DMG-PEG2000 about 50/10/38.5/1.5, eGFP mRNA, mRNA/ionizable lipid 1/10
Method: as §1

hEPO expression = test: In vivo hEPO expression after IV mRNA LNP injection (hEPO ELISA); parameters: species or system BALB/c mice; details: hEPO mRNA LNPs, 10 μg mRNA intravenous in tail vein, different timepoints, FIGS. 3 A & B
Method: LNPs were produced at a standard molar ratio ionizable lipid/DSPC/cholesterol/DMG-PEG2000 of about 50/10/38.5/1.5. Human erythropoietin (hEPO) mRNA was encapsulated in all LNPs at an mRNA/ionizable lipid molar ratio of 1/10.
BALB/c mice (female, 6 weeks old mice) were injected intravenously in the tail vein with 200 μl of the respective mRNA LNPs (10 μg mRNA, TBS buffer) or control buffer. Blood was collected from the submandibular vein at different timepoints after which hEPO concentrations were determined using hEPO ELISA assay kit (catalog #BMS2035-2—Thermofisher Scientific), according to the manufacturer's instructions.

| Structure (SMILES) | PDI [1] | size [1] | % encap [2] [%] | hEPO expression (serum concentration, area under curve) (hEPO expression) |
| --- | --- | --- | --- | --- |
| CCCCCC/C=C\COC(=O)CCCCCCCN(CCCCCCCC(=O)OC(CCCCCCCC)CCCCCCCC)C(=O)OCCSSCCOC(=O)NCCN(C)C [ETG-51] | 0.119 | 111.97 | 96 |  |
| CCCCCCCCC(CC)OC(=O)CCCCCCCN(CCCCCCCC(=O)OC(CCCCCCCC)CCCCCCCC)C(=O)OCCSSCCOC(=O)NCCN(C)C (stereo not shown) [ETG-55] | 0.123 | 93.73 | 96 |  |
| CCCCCCCC/C=C\CCCCCCCC(=O)OCC(CNC(=O)OCCSSCCOC(=O)NCCN1CCCCCC1)OC(=O)CCCCCCC/C=C\CCCCCCCC (stereo not shown) [ETG-23, reference compound] | 0.082 | 75.97 | 97 |  |
| CCCCCC/C=C\COC(=O)CCCCCCCN(CCCCCCCC(=O)OC(CCCCCCCC)CCCCCCCC)C(=O)OCCSSCCOC(=O)NCCN1CCCCCC1 [ETG-52] | 0.099 | 90.70 | 97 |  |
| CCCCCCCCC(CCCCCCCC)OC(=O)CCCCCCCN(CCCCCC(=O)OC(CCCCCCCC)CCCCCCCC)C(=O)OCCSSCCOC(=O)NCCN(C)C [ETG-57] | 0.114 | 109.10 | 95 |  |
| CCCCCCCCCOC(=O)CCCCCCCN(CCCCCCCC(=O)OC(CCCCCCCC)CCCCCCCC)C(=O)OCCSSCCOC(=O)NCCN1CCCCCC1 [ETG-54] | 0.150 | 90.30 | 98 |  |
| CCCCCCCCC(CC)OC(=O)CCCCCCCN(CCCCCCCC(=O)OC(CCCCCCCC)CCCCCCCC)C(=O)OCCSSCCOC(=O)NCCN1CCCCCC1 (stereo not shown) [ETG-56] | 0.120 | 86.26 | 98 |  |
| CCCCCCCCC(CCCCCCCC)OC(=O)CCCCCCCN(CCCCCC(=O)OC(CCCCCCCC)CCCCCCCC)C(=O)OCCSSCCOC(=O)NCCN1CCCCCC1 [ETG-58] | 0.086 | 101.50 | 98 |  |
| CCCCCCCCCOC(=O)CCCCCCCN(CCCCCCCC(=O)OC(CCCCCCCC)CCCCCCCC)C(=O)OCCSSCCOC(=O)NCCN(C)C [ETG-53] | 0.085 | 103.23 | 97 | higher hEPO expression compared to ETG-23 control |

— patent US20250326712A1, “IONIZABLE LIPIDS” (eTheRNA immunotherapies NV, priority 2022, published 2025)
